# According to PubChem BioAssay AID256 (DTP/NCI, 2004):
# Several values for one entry are separate records, joined by “and”; a condition that tells them apart may be missing. Identical values can stand only once. Toxic doses and inconclusive results are not listed.
# Test system: CD2F1 mice, L1210 leukemia ip, survival T/C
# Experiment: NCI In Vivo Anticancer Drug Screen. Data for tumor model L1210 Leukemia (intraperitoneal) in CD2F1 (CDF1) mice
# Conditions: higher = longer survival
# Summary of the method: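 Transplantable tumor in mice; compound-treated vs vehicle-treated groups. Read-out = treated/control ratio of the measured endpoint.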
# [1] = endpoint: mean survival time, dose: 100.0 mg/kg/injection, schedule: Q01DX009 (ip), vehicle: saline with Tween-80
# [2] = endpoint: mean survival time, dose: 200.0 mg/kg/injection, schedule: Q01DX009 (ip), vehicle: saline with Tween-80
# [3] = endpoint: mean survival time, dose: 400.0 mg/kg/injection, schedule: Q01DX009 (ip), vehicle: saline with Tween-80
# [4] = endpoint: mean survival time, dose: 100.0 mg/kg/injection, schedule: Q04DX003 (ip), vehicle: saline with Tween-80
# [5] = endpoint: mean survival time, dose: 200.0 mg/kg/injection, schedule: Q04DX003 (ip), vehicle: saline with Tween-80
# [6] = endpoint: mean survival time, dose: 100.0 mg/kg/injection, schedule: Q01DX009 (ip), vehicle: other
compound,measurement,setting,value
O=C1c2ccccc2C(=O)c2c(NCCNCCO)ccc(O)c21,T/C,"endpoint: mean survival time, dose: 1.25 mg/kg/injection, schedule: Q01DX009 (ip), vehicle: suspension in saline",100 % of control
same,T/C,"endpoint: mean survival time, dose: 2.5 mg/kg/injection, schedule: Q01DX009 (ip), vehicle: suspension in saline",101 % of control and 112 % of control
same,T/C,"endpoint: mean survival time, dose: 5.0 mg/kg/injection, schedule: Q01DX009 (ip), vehicle: suspension in saline",113 % of control and 103 % of control
same,T/C,"endpoint: mean survival time, dose: 7.5 mg/kg/injection, schedule: Q01DX009 (ip), vehicle: saline",193 % of control
same,T/C,"endpoint: mean survival time, dose: 10.0 mg/kg/injection, schedule: Q01DX009 (ip), vehicle: suspension in saline",118 % of control and 101 % of control
same,T/C,"endpoint: mean survival time, dose: 15.0 mg/kg/injection, schedule: Q01DX009 (ip), vehicle: saline",151 % of control
same,T/C,"endpoint: mean survival time, dose: 20.0 mg/kg/injection, schedule: Q01DX009 (ip), vehicle: suspension in saline",112 % of control
same,T/C,"endpoint: mean survival time, dose: 40.0 mg/kg/injection, schedule: Q01DX009 (ip), vehicle: suspension in saline",156 % of control
same,T/C,"endpoint: median survival time, dose: 5.0 mg/kg/injection, schedule: Q01DX009 (ip), vehicle: suspension in saline",123 % of control and 110 % of control
same,T/C,"endpoint: median survival time, dose: 10.0 mg/kg/injection, schedule: Q01DX009 (ip), vehicle: suspension in saline",115 % of control
same,T/C,"endpoint: median survival time, dose: 20.0 mg/kg/injection, schedule: Q01DX009 (ip), vehicle: suspension in saline",150 % of control
same,T/C,"endpoint: median survival time, dose: 40.0 mg/kg/injection, schedule: Q01DX009 (ip), vehicle: suspension in saline",153 % of control and 155 % of control
same,T/C,"endpoint: median survival time, dose: 80.0 mg/kg/injection, schedule: Q01DX009 (ip), vehicle: suspension in saline",158 % of control and 183 % of control
COC(=O)C1C=Cc2ccccc21 (stereo not given),T/C,[1],95 % of control
same,T/C,[2],95 % of control
same,T/C,[3],104 % of control
O=C(O)/C=C/C(=O)Nc1ccccc1[N+](=O)[O-],T/C,"endpoint: mean survival time, dose: 50.0 mg/kg/injection, schedule: Q01DX009 (ip), vehicle: saline with Tween-80",102 % of control
same,T/C,[1],104 % of control
same,T/C,[2],94 % of control
CCOC(=O)C(O)(C(=O)OCC)C(C)C,T/C,[1],94 % of control
same,T/C,[2],100 % of control
same,T/C,[3],94 % of control
Nc1nc(N)c(N=Nc2ccc(SCC(=O)O)cc2)c(N)n1,T/C,[4],102 % of control
same,T/C,[5],104 % of control
same,T/C,"endpoint: mean survival time, dose: 400.0 mg/kg/injection, schedule: Q04DX003 (ip), vehicle: saline with Tween-80",95 % of control
O=C(CC(O)(C(F)(F)F)C(F)(F)F)c1ccc(Cl)cc1,T/C,"endpoint: mean survival time, dose: 50.0 mg/kg/injection, schedule: Q01DX009 (ip), vehicle: other",103 % of control
same,T/C,[6],103 % of control
same,T/C,[4],107 % of control
same,T/C,"endpoint: mean survival time, dose: 200.0 mg/kg/injection, schedule: Q01DX009 (ip), vehicle: other",87 % of control
same,T/C,[5],107 % of control
O=C(Cc1ccccc1)NCc1ccccc1,T/C,"endpoint: mean survival time, dose: 6.25 mg/kg/injection, schedule: Q01DX001 (ip), vehicle: saline",101 % of control
same,T/C,"endpoint: mean survival time, dose: 12.5 mg/kg/injection, schedule: Q01DX001 (ip), vehicle: saline",94 % of control
same,T/C,"endpoint: mean survival time, dose: 25.0 mg/kg/injection, schedule: Q01DX001 (ip), vehicle: saline",101 % of control
CC(C)(C)c1ccc(OCCO)cc1,T/C,[6],108 % of control
same,T/C,[4],100 % of control
O=C(CC(=Nc1ccccc1)c1ccccc1)c1ccccc1.O=C(CC(=Nc1ccccc1)c1ccccc1)c1ccccc1.[Cu],T/C,"endpoint: mean survival time, dose: 12.5 mg/kg/injection, schedule: Q01DX009 (ip), vehicle: saline with Tween-80",98 % of control
same,T/C,"endpoint: mean survival time, dose: 25.0 mg/kg/injection, schedule: Q01DX009 (ip), vehicle: saline with Tween-80",93 % of control
COC1OC(COC(c2ccccc2)(c2ccccc2)c2ccccc2)C(OC(C)=O)C1OC(C)=O (stereo not given),T/C,"endpoint: mean survival time, dose: 100.0 mg/kg/injection, schedule: Q04DX003 (ip), vehicle: Klucel (hydroxypropylcellulose) (HPC)",109 % of control
same,T/C,"endpoint: mean survival time, dose: 200.0 mg/kg/injection, schedule: Q04DX003 (ip), vehicle: Klucel (hydroxypropylcellulose) (HPC)",89 % of control
same,T/C,"endpoint: mean survival time, dose: 400.0 mg/kg/injection, schedule: Q04DX003 (ip), vehicle: Klucel (hydroxypropylcellulose) (HPC)",89 % of control
